Experimental data from US6436941B1, “5,6-dihydro-napth[1,2-d]-imidazole, napth[1,2-d]imidazole, and chromane[3,4-d]imidazole derivatives” (Neurogen Corporation, priority 1995, dated 2002).
Where a name gives a salt, the structure may show the parent alone. Read-outs that look alike come from different tables or passages of the source.

Tests used:
D2 receptors = molecular target: T1, D2 receptors (Chlorocebus aethiops, UniProt P52702); assay: D2 receptor binding assay (3H-YM 09151-2 displacement); set-up: species or system African Green monkey; conditions: COS cells with recombinant D2 receptor; 0.5 nM 3H-YM 09151-2
T1 construct: expressed in transfected cells; host or cells: COS cells
Method: (§1) Assay for D2 and D3 receptor binding activity
(§2) Pellets of COS cells containing recombinantly produced D2 or D3 receptors from African Green monkey were used for the assays. The sample is homogenized in 100 volumes (w/vol) of 0.05 M Tris HCl buffer at 4° C. and pH 7.4. The sample is then centrifuged at 30,000×g and resuspended and rehomogenized. The sample is then centrifuged as described and the final tissue sample is frozen until use. The tissue is resuspended 1:20 (wt/vol) in 0.05 M Tris HCl buffer containing 100 mM NaCl.
(§3) Incubations are carried out at 48° C. and contain 0.4 ml of tissue sample, 0.5 nM ^3H-YM 09151-2 and the compound of interest in a total incubation of 1.0 ml. Nonspecific binding is defined as that binding found in the presence of 1 μM spiperone; without further additions, nonspecific binding is less than 20% of total binding.

[1] = molecular target: T2, human dopamine D4 receptor subtype (Homo sapiens, UniProt P21917); assay: D4 receptor binding assay ([3H]YM-09151-2 displacement)
T2 construct: expressed in transfected cells
T2 sequence (P21917 1-419): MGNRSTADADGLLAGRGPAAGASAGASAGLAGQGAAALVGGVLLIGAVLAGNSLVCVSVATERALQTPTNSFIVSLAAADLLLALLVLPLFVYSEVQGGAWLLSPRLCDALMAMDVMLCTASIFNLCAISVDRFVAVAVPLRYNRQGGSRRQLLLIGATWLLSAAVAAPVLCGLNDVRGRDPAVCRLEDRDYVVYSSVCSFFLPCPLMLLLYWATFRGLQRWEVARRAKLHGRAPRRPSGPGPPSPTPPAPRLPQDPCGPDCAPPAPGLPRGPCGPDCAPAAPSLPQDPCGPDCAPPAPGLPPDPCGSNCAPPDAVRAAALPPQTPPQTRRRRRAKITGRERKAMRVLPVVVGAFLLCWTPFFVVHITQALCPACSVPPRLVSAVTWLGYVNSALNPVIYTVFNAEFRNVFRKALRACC
Method: Assay for D4 receptor binding activity
Clonal cell lines expressing the human dopamine D4 receptor subtype were harvested in PBS and the cells centrifuged and the pellets stored at −80° C. until used in the binding assay. The pellets were resuspended and the cells lysed at 4° C. in 50 mM Tris pH 7.4 buffer containing 120 mM NaCl, 1 mM EDTA and 5 mM MgCl2. The homogenate is centrifuged at 48000×g for 10 minutes at 4° C. The resulting pellet is resuspended in fresh buffer and centrifuged again. After resuspension of the pellet in fresh buffer a […] aliquot is removed for protein determination. […] Incubations were carried out for 60 minutes at 25° C. in the presence of 0.1 nM [^3H] […] The incubation was terminated by rapid filtration through Whatman GF/C filters and rinsed with 2×4 ml washes of chilled 50 mM Tris (pH 7.4) and 120 mM NaCl. Non-specific binding was determined with 1 μM spiperone and radioactivity determined by counting in an LKB beta counter. Binding parameters were determined by non-linear least squares regression analysis, from which the inhibition constant Ki could be calculated for each test compound.

D3 receptors = molecular target: T3, D3 receptors (Chlorocebus aethiops, UniProt P52703); assay: D3 receptor binding assay (3H-YM 09151-2 displacement); set-up: species or system African Green monkey; conditions: COS cells with recombinant D3 receptor; 0.5 nM 3H-YM 09151-2
T3 construct: expressed in transfected cells; host or cells: COS cells
Method: as §1, §2, §3

[2] = clonal cell lines expressing human D4, 0.1 nM [3H]YM-09151-2, 60 minutes at 25° C., read-out: Ki

T1 sequence (P52702 whole entry): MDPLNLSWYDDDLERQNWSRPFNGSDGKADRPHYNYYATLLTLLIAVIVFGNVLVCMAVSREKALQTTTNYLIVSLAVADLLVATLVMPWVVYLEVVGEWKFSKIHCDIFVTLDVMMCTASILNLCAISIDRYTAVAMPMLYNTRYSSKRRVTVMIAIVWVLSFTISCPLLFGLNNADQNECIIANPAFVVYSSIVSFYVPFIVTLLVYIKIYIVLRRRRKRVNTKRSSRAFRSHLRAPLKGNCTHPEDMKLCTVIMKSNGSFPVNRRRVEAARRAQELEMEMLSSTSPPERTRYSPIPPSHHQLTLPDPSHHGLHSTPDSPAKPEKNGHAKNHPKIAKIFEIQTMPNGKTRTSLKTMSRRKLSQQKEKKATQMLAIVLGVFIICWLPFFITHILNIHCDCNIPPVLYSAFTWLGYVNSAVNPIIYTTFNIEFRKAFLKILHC
T3 sequence (P52703 whole entry): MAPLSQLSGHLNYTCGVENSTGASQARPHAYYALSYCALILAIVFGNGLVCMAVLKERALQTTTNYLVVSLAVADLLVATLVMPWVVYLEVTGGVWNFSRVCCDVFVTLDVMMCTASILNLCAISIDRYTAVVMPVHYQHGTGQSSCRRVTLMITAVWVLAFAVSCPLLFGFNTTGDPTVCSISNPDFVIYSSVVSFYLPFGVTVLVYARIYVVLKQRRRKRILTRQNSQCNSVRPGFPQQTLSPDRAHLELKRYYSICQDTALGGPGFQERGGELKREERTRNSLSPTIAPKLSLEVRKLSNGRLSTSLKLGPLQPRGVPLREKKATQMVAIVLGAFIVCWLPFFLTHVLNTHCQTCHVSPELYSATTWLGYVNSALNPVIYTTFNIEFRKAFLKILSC

Row | Compound | melting point | Ki (D2 receptors) | Ki [1, 2] | Ki (D3 receptors) | Ki [1]
1 | c1cnc(N2CCN(Cc3nc4c([nH]3)-c3ccccc3CC4)CC2)nc1 (as salt: hydrochloride) [Compound 1, 1H-2-(1-(4-(2-pyrimidyl)piperazinyl))methyl-(5,6-dihydro)-naphth[1,2-d]imidazole dihydrochloride] | 212 to 214 °C | – | – | – | –
2 | CN(Cc1ccccc1)Cc1nc2c([nH]1)-c1ccccc1CC2 (as salt: hydrochloride) [Compound 2, 1H-{2-(N-benzyl-N-methyl)aminomethyl}-(5,6-dihydro)-naphth[1,2-d]imidazole dihydrochloride] | 225 to 227 °C | – | – | – | –
3 | c1cnc(N2CCN(Cc3nc4c([nH]3)-c3ccccc3CC4)CC2)nc1 [Compound 1, 1H-2-(1-(4-(2-pyrimidyl)piperazinyl))methyl-(5,6-dihydro)-naphth[1,2-d]imidazole dihydrochloride] | – | 4200 nM | 12 nM | 7800 nM | –

More lines, now with the values ahead:

Row | melting point | Ki (D2 receptors) | Ki [1, 2] | Ki (D3 receptors) | Ki [1] | Compound
4 | 198 to 201 °C (dec.) | – | – | – | – | CN(Cc1ccccc1)Cc1nc2c([nH]1)-c1ccccc1OC2 (as salt: hydrochloride) [Compound 3, 1H-{2-(N-benzyl-N-methyl)aminomethyl}chromano[3,4-d]imidazole dihydrochloride]
5 | – | 350 nM | – | 210 nM | 81 nM | CN(Cc1ccccc1)Cc1nc2c([nH]1)-c1ccccc1CC2 [Compound 2, 1H-{2-(N-benzyl-N-methyl)aminomethyl}-(5,6-dihydro)-naphth[1,2-d]imidazole dihydrochloride]
6 | – | 220 nM | 145 nM | 440 nM | – | CN(Cc1ccccc1)Cc1nc2c([nH]1)-c1ccccc1OC2 [Compound 3, 1H-{2-(N-benzyl-N-methyl)aminomethyl}chromano[3,4-d]imidazole dihydrochloride]
